Source: patent publication US5081114A, “Steroids” (Roussel Uclaf, priority 1989, dated 1992)

Biological target: T1, aromatase (Homo sapiens, UniProt P11511)
T1 construct: This supernatant was subjected to an ultracentrifugation stage for 90 minutes at 105,000 g to obtain the microsomal deposit; from tissue; host or cells: human placenta, microsomes
T1 sequence (P11511 1-503): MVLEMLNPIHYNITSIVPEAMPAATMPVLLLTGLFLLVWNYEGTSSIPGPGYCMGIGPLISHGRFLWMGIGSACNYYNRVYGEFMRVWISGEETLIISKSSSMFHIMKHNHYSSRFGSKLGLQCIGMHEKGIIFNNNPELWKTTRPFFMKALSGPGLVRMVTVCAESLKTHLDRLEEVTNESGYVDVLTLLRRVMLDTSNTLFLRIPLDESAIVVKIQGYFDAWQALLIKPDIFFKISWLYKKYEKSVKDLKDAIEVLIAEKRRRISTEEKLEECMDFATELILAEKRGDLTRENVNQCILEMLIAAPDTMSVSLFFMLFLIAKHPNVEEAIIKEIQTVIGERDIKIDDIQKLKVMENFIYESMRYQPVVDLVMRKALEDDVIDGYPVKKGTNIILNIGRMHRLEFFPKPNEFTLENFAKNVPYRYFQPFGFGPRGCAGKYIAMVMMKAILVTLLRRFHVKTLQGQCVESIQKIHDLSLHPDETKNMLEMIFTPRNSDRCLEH
Test: Inhibition of aromatase in placental microsomes (measurement of the CI50)
Format: biochemical
Conditions: human placental microsomes (25 microgramms of proteins per test); 60 nM Androstenedione with 1β-2β-(H^3)-Androstenedione; NADPH; pH=7.2; 37° C., 10 minutes; tritiated water release; read-out: CI50 (concentration of the inhibitor necessary to reduce the enzymatic activity by 50%)
Experimental: Inhibition dependent on the concentration (measurement of the CI50 =concentration of the inhibitor necessary to reduce the enzymatic activity by 50%).
Human placentas were used which were washed one hour at most after delivery, then perfused with physiological serum (5 liters) via the umbilical vein, then deep-frozen at -40° C.
1) Obtaining the placental microsomes
The placentas were thawed out at 4° C., then homogenized (1:3) in a 10 mM phosphate buffer, pH=7.0 containing 100 milimoles of potassium chloride (KCl), 10 millimoles of dithiothreitol (DTT), 10 millimoles of ethylenediaminetetra-acetic acid (EDTA), 40 millimoles of nicotinamide and 250 millimoles of sucrose. The homogenates were then subjected to different phases of centrifugation until a "9000 g" supernatant was obtained (corresponding to cytosol and to endosplasmic reticulum). […] The protein concentration of the microsomal suspension was determined by the BRADFORD method [BRADFORD, Anal. Biochem., Voml. […]
Then the enzymatic reaction was very rapidly initiated by the addition of 10 microliters of reduced nicotinamide adenine dinucleotide phosphate (NADPH) solubilized in water. […] After centrifugation, and for each tube, 100 microliters of supernatant was removed and counted in the presence of a scintillating liquid. […]

With CC12CC=C3C(CCC4=CC(=O)CCC43CC=O)C1CCC2=O (stereo not shown) [Example 3, ^4,9(11) -androstadiene-3,17-dione-19-carboxaldehyde] the IC50 was 85 nM.
